Toxic doses and inconclusive results are not listed. No stated cut-off is given here; in the data, active means T/C of 150% or more; inactive means T/C below 125%.
Tested on: L1210 leukemia ip in BDF1 mice, survival T/C
Test: NCI In Vivo Anticancer Drug Screen. Data for tumor model L1210 Leukemia (intraperitoneal) in B6D2F1 (BDF1) mice
Conditions: endpoint: mean survival time, higher = longer survival
Summary of the method: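 Value reflects the ratio of survival in compound-treated mice to survival in vehicle-treated controls, with both groups carrying the same transplanted tumor.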

[1] = dose: 100.0 mg/kg/injection, schedule: Q01DX009 (ip), vehicle: Klucel (hydroxypropylcellulose) (HPC)
[2] = dose: 200.0 mg/kg/injection, schedule: Q01DX009 (ip), vehicle: Klucel (hydroxypropylcellulose) (HPC)
[3] = dose: 400.0 mg/kg/injection, schedule: Q01DX009 (ip), vehicle: Klucel (hydroxypropylcellulose) (HPC)
[4] = dose: 100.0 mg/kg/injection, schedule: Q01DX009 (ip), vehicle: saline with Tween-80
[5] = dose: 200.0 mg/kg/injection, schedule: Q01DX009 (ip), vehicle: saline with Tween-80
[6] = dose: 100.0 mg/kg/injection, schedule: Q04DX003 (ip), vehicle: saline with Tween-80
[7] = dose: 200.0 mg/kg/injection, schedule: Q04DX003 (ip), vehicle: saline with Tween-80
[8] = dose: 400.0 mg/kg/injection, schedule: Q04DX003 (ip), vehicle: saline with Tween-80
[9] = dose: 100.0 mg/kg/injection, schedule: Q01DX001 (ip), vehicle: Klucel (hydroxypropylcellulose) (HPC)

Measured: T/C

COc1ccc2c(c1)CCCC2CC(=O)c1ccccc1 (stereo not given)
inactive: dose: 50.0 mg/kg/injection, schedule: Q01DX009 (ip), vehicle: acetone 98 % of control | dose: 100.0 mg/kg/injection, schedule: Q01DX009 (ip), vehicle: acetone 95 % of control | dose: 100.0 mg/kg/injection, schedule: Q04DX003 (ip), vehicle: acetone 86 % of control | dose: 198.0 mg/kg/injection, schedule: Q01DX009 (ip), vehicle: other 107 % of control | dose: 200.0 mg/kg/injection, schedule: Q01DX009 (ip), vehicle: acetone 98 % of control | dose: 200.0 mg/kg/injection, schedule: Q04DX003 (ip), vehicle: acetone 87 % of control | dose: 300.0 mg/kg/injection, schedule: Q01DX009 (ip), vehicle: other 104 % of control

COC(=O)/C=C/c1ccc(OC)c(OC)c1
inactive: dose: 100.0 mg/kg/injection, schedule: Q04DX003 (ip), vehicle: Klucel (hydroxypropylcellulose) (HPC) 93 % of control | dose: 200.0 mg/kg/injection, schedule: Q04DX003 (ip), vehicle: Klucel (hydroxypropylcellulose) (HPC) 95 % of control | dose: 400.0 mg/kg/injection, schedule: Q04DX003 (ip), vehicle: Klucel (hydroxypropylcellulose) (HPC) 102 % of control

CC(=O)Oc1ccc(/C=C/c2ccncc2)cc1
inactive: [1] 97 % of control | [2] 100 % of control | [3] 104 % of control

CCC[CH2][Sn]([Cl])([Cl])[CH2]CCC
inactive: dose: 2.5 mg/kg/injection, schedule: Q01DX009 (ip), vehicle: saline with Tween-80 100 % of control | dose: 5.0 mg/kg/injection, schedule: Q01DX009 (ip), vehicle: saline with Tween-80 95 % of control | dose: 5.0 mg/kg/injection, schedule: Q04DX003 (ip), vehicle: saline with Tween-80 104 % of control | dose: 10.0 mg/kg/injection, schedule: Q01DX009 (ip), vehicle: saline with Tween-80 95 % of control | dose: 10.0 mg/kg/injection, schedule: Q04DX003 (ip), vehicle: saline with Tween-80 101 % of control | dose: 20.0 mg/kg/injection, schedule: Q04DX003 (ip), vehicle: saline with Tween-80 119 % of control

COc1ccc(N=CN(C)C)nn1
inactive: dose: 100.0 mg/kg/injection, schedule: Q04DX002 (ip), vehicle: saline with Tween-80 91 % of control | dose: 200.0 mg/kg/injection, schedule: Q04DX002 (ip), vehicle: saline with Tween-80 97 % of control | dose: 400.0 mg/kg/injection, schedule: Q04DX002 (ip), vehicle: saline with Tween-80 97 % of control

Nc1cc(Nc2cccc(Cl)c2)nc(N)n1
inactive: dose: 100.0 mg/kg/injection, schedule: Q01DX001 (ip), vehicle: carboxymethylcellulose (CMC) 94 % of control

N#CC(CC(=O)c1ccccc1)c1ccccc1 (stereo not given)
inactive: [4] 97 % of control | [5] 100 % of control | dose: 400.0 mg/kg/injection, schedule: Q01DX009 (ip), vehicle: saline with Tween-80 107 % of control

CCCN(CCC)C(=O)C1C2C=CC(C2)C1C(=O)N(CCC)CCC (stereo not given)
inactive: [6] 98 % of control | [7] 111 % of control | [8] 98 % of control

O=S(=O)(F)c1c(Cl)cccc1CBr
inactive: dose: 25.0 mg/kg/injection, schedule: Q01DX009 (ip), vehicle: saline with Tween-80 100 % of control | dose: 50.0 mg/kg/injection, schedule: Q01DX009 (ip), vehicle: saline with Tween-80 96 % of control | [4] 86 % of control

CCn1ncc2ccccc2c1=O
inactive: dose: 100.0 mg/kg/injection, schedule: Q01DX001 (ip), vehicle: saline 96 % of control | dose: 200.0 mg/kg/injection, schedule: Q01DX001 (ip), vehicle: saline 97 % of control

C(=N\Nc1nc2ccccc2o1)/c1ccncc1
inactive: [1] 95 % of control | [2] 104 % of control | [3] 104 % of control

CCOc1ccc(N=[N+]([O-])c2ccc(OCC)cc2)cc1
inactive: dose: 100.0 mg/kg/injection, schedule: Q01DX001 (ip), vehicle: saline with Tween-80 103 % of control | dose: 200.0 mg/kg/injection, schedule: Q01DX001 (ip), vehicle: saline with Tween-80 103 % of control | dose: 400.0 mg/kg/injection, schedule: Q01DX001 (ip), vehicle: saline with Tween-80 92 % of control

O=C(CCl)OCC1CC2C=CC1C2 (stereo not given)
inactive: dose: 222.0 mg/kg/injection, schedule: Q01DX Z (ip), vehicle: saline 98 % of control | dose: 333.0 mg/kg/injection, schedule: Q01DX Z (ip), vehicle: saline 100 % of control | dose: 500.0 mg/kg/injection, schedule: Q01DX Z (ip), vehicle: saline 96 % of control

CCCCCCCCCCCc1cc(=O)n(-c2ccccc2)n1C
inactive: dose: 12.5 mg/kg/injection, schedule: Q04DX003 (ip), vehicle: saline with Tween-80 92 % of control | dose: 25.0 mg/kg/injection, schedule: Q04DX003 (ip), vehicle: saline with Tween-80 98 % of control | dose: 50.0 mg/kg/injection, schedule: Q04DX003 (ip), vehicle: saline with Tween-80 95 % of control | [7] 102 % of control

CC1CN(C(=N)C#N)C(C)CN1C(=N)C#N (stereo not given)
inactive: [4] 92 % of control | [6] 109 % of control | [7] 104 % of control

Cc1cccc(C)c1N(COCC(C)C)C(=O)CCl
inactive: [4] 100 % of control | [5] 100 % of control

CCC1(c2ccccc2)OC1C(=O)OCC(C)C (stereo not given)
inactive: dose: 100.0 mg/kg/injection, schedule: Q04DX002 (ip), vehicle: saline 112 % of control | dose: 200.0 mg/kg/injection, schedule: Q04DX002 (ip), vehicle: saline 97 % of control | dose: 400.0 mg/kg/injection, schedule: Q04DX002 (ip), vehicle: saline 101 % of control

O=c1[nH]c2ccc([As](O)O)cc2[nH]1
inactive: dose: 12.5 mg/kg/injection, schedule: Q01DX009 (ip), vehicle: water 109 % of control | dose: 25.0 mg/kg/injection, schedule: Q01DX009 (ip), vehicle: water 110 % of control | dose: 50.0 mg/kg/injection, schedule: Q01DX001 (ip), vehicle: water 98 % of control | dose: 50.0 mg/kg/injection, schedule: Q01DX009 (ip), vehicle: water 124 % of control | dose: 100.0 mg/kg/injection, schedule: Q01DX001 (ip), vehicle: water 101 % of control | dose: 200.0 mg/kg/injection, schedule: Q01DX001 (ip), vehicle: water 104 % of control | dose: 400.0 mg/kg/injection, schedule: Q01DX001 (ip), vehicle: water 114 % of control

COC(=O)c1cc(C)[n+]([O-])cc1C(=O)OC
inactive: dose: 100.0 mg/kg/injection, schedule: Q04DX003 (ip), vehicle: saline 92 % of control | dose: 200.0 mg/kg/injection, schedule: Q04DX003 (ip), vehicle: saline 97 % of control | dose: 400.0 mg/kg/injection, schedule: Q04DX003 (ip), vehicle: saline 100 % of control

[N-]=[N+]=NCCCCCCCCCCN=[N+]=[N-]
inactive: dose: 75.0 mg/kg/injection, schedule: Q04DX003 (ip), vehicle: saline 102 % of control | dose: 150.0 mg/kg/injection, schedule: Q04DX003 (ip), vehicle: saline 101 % of control | dose: 300.0 mg/kg/injection, schedule: Q04DX003 (ip), vehicle: saline 91 % of control

CN(C)c1ccc(/C=N/NC(=O)c2ccccc2)cc1
inactive: dose: 100.0 mg/kg/injection, schedule: Q04DX003 (ip), vehicle: other 94 % of control | dose: 200.0 mg/kg/injection, schedule: Q04DX003 (ip), vehicle: other 97 % of control | dose: 400.0 mg/kg/injection, schedule: Q04DX003 (ip), vehicle: other 98 % of control

NC(=S)N/N=C/c1nccn1Cc1ccccc1
inactive: [9] 104 % of control | dose: 100.0 mg/kg/injection, schedule: Q01DX001 (ip), vehicle: other 101 % of control | dose: 200.0 mg/kg/injection, schedule: Q01DX001 (ip), vehicle: Klucel (hydroxypropylcellulose) (HPC) 101 % of control | dose: 200.0 mg/kg/injection, schedule: Q01DX001 (ip), vehicle: other 96 % of control | dose: 400.0 mg/kg/injection, schedule: Q01DX001 (ip), vehicle: Klucel (hydroxypropylcellulose) (HPC) 104 % of control

c1ccc(C2=NC2c2ccccc2)cc1 (stereo not given)
inactive: dose: 25.0 mg/kg/injection, schedule: Q01DX001 (ip), vehicle: Klucel (hydroxypropylcellulose) (HPC) 97 % of control | dose: 50.0 mg/kg/injection, schedule: Q01DX001 (ip), vehicle: Klucel (hydroxypropylcellulose) (HPC) 96 % of control | [9] 105 % of control

CCCCCCCCCCCCCCCCOc1ccc(C(=O)OC)cc1[N+](=O)[O-]
inactive: [6] 94 % of control | [7] 90 % of control | [8] 87 % of control

C=C(Cl)CSCCO
inactive: [6] 92 % of control | [7] 97 % of control | [8] 97 % of control
